Numbers after ± are expanded uncertainties.
Key:
[1] = Liquid
[2] = Boiling temperature at pressure P; settings: Liquid, ebulliometry

| vapor or sublimation pressure ([1]; 357.85 K) [kPa] | vapor or sublimation pressure ([1]; 364.85 K) [kPa] | vapor or sublimation pressure ([1]; 370.45 K) [kPa] | vapor or sublimation pressure ([1]; 372.95 K) [kPa] | vapor or sublimation pressure ([1]; 375.15 K) [kPa] | vapor or sublimation pressure ([1]; 379.05 K) [kPa] | vapor or sublimation pressure ([1]; 382.75 K) [kPa] | vapor or sublimation pressure ([1]; 385.65 K) [kPa] | vapor or sublimation pressure ([1]; 388.95 K) [kPa] | vapor or sublimation pressure ([1]; 390.35 K) [kPa] | vapor or sublimation pressure ([1]; 391.65 K) [kPa] | vapor or sublimation pressure ([1]; 394.15 K) [kPa] | vapor or sublimation pressure ([1]; 396.65 K) [kPa] | vapor or sublimation pressure ([1]; 398.85 K) [kPa] | vapor or sublimation pressure ([1]; 401.05 K) [kPa] | vapor or sublimation pressure ([1]; 402.45 K) [kPa] | SMILES | Boiling temperature at pressure P ([2]; 33.3 kPa) [°C] | Boiling temperature at pressure P ([2]; 66.6 kPa) [°C] | Boiling temperature at pressure P ([2]; 101.3 kPa) [°C] |
| --- | --- | --- | --- | --- | --- | --- | --- | --- | --- | --- | --- | --- | --- | --- | --- | --- | --- | --- | --- |
| 16.7 ± 0.3 | 23.3 ± 0.3 | 30 ± 0.4 | 33.3 ± 0.4 | 36.7 ± 0.4 | 43.3 ± 0.4 | 50 ± 0.4 | 56.6 ± 0.5 | 63.3 ± 0.5 | 66.6 ± 0.5 | 70 ± 0.5 | 76.6 ± 0.5 | 83.3 ± 0.6 | 90 ± 0.6 | 96.6 ± 0.6 | 101.3 ± 0.6 | CCC(C)CO (centres undefined) [2-methyl-1-butanol] | – | – | – |
| – | – | – | – | – | – | – | – | – | – | – | – | – | – | – | – | CCO [ethanol] | 52.60 ± 0.2 | 68.00 ± 0.2 | 78.30 ± 0.2 |

— the NIST ThermoML archive (doi:10.1021/je010272x)
